Assay results: publication PMC11597625, “Mutational Analysis of Substrate Recognition in Trypsin-like Protease Cocoonase: Protein Memory Induced by Alterations in Substrate-Binding Site” (Molecules, 2024)

Target: T1, CCN′ ([K63G,K131G,K133A]-CCN, degradation-suppressed cocoonase) (Bombyx mori, UniProt A7TVD3, K85G/K153G/K155A)
T1 construct: mature enzyme, propeptide removed (precursors carried K8D or K8D/E10D/E11D in the propeptide)
Assay: BAEE hydrolysis assay
Format: biochemical
Conditions: assay conditions not described

T1 sequence (A7TVD3 entry or part of it K85G/K153G/K155A): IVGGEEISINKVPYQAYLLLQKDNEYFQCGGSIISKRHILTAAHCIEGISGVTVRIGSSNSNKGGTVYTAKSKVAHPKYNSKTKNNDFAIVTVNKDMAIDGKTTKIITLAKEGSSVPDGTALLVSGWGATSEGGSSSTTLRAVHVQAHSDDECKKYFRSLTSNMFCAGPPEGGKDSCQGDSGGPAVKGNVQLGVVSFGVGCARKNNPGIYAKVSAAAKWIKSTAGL

CCOC(=O)[C@H](CCCNC(=N)N)NC(=O)c1ccccc1 [BAEE]
Km: 372 µM
